Laboratory results as given in patent publication US20140187786A1, “1,3,4-TRISUBSTITUTED BENZENES” (EnVivo Pharmaceuticals, Inc., priority 2007, published 2014).

melting point: 142 to 143 °C
SMILES: CC(C)CC(C(=O)O)c1ccc(-c2ccc(C(F)(F)F)cc2)c(OCC2CC2)c1 (stereo not shown) [Example 142, 2-(2-cyclopropylmethoxy-4′-trifluoromethyl-biphenyl-4-yl)-4-methyl-pentanoic acid]
